# Data: patent publication US6262293A, “ω-Cycloalkly-prostaglandin e2 derivatives” (Ono Pharmaceutical Co., Ltd., priority 1997, dated 2001)
# Key:
# Conditions in all cases: CHO cell membrane fraction; 2.5 nM 3H-PGE2; pH 6.0; room temperature, 1 hour; more polar stereoisomer
# mouse EP2 = biological target: T1, mouse EP2 (Mus musculus, UniProt Q62053); assay: Binding assay using expression cell of prostanoids receptor subtype (competition of specific 3H-PGE2 binding), EP2
# T1 construct: expressed in transfected cells; host or cells: CHO cells (membrane fraction)
# T1 sequence (Q62053 whole entry): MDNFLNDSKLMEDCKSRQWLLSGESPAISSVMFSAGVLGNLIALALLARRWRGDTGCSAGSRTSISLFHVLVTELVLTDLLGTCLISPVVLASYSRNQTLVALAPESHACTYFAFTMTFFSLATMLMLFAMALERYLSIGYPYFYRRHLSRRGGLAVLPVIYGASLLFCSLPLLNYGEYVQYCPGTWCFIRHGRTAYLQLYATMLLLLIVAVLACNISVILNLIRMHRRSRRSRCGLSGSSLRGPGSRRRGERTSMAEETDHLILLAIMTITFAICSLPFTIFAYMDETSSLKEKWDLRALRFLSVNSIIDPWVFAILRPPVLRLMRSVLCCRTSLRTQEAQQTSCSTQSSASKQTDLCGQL
# Protocol: (§1) (i) Binding Assay Using Expression Cell of Prostanoids Receptor Subtype
# (§2) The preparation of membrane fraction was carried out according to the method of Sugimoto et. al., [J. Biol. Chem., 267, 6463-6466 (1992)], using expression CHO cell of the prostanoids receptor subtype (mouse EP1, EP2, EP3α, EP4).
# (§3) The standard assay mixture containing membrane fraction (0.5 mg/ml) and [^3 H]-PGE2 ([…]) in a final volume of 200 μl was incubated at room temperature for 1 hour. The reaction was terminated by addition of ice-cooled buffer (3 ml). The mixture was filtered through a GF/B glass filter under reduced pressure. The radioactivity associated with the filter was measured by liquid scintillation counter.
# (§4) Kd and Bmax values were determined from Scatchard plots [Ann. N. Y. Acad. Sci., 51, 660 (1949)]. Non-specific binding was calculated as the binding in the presence of an excess (2.5 μM) of unlabeled PGE2. In the experiment for competition of specific ^3 H-PGE2 binding by the compounds of the present invention, 2.5 nM of ^3 H-PGE2 and various concentrations of compounds of the present invention were added. The following buffer was used in all reactions.
# (§5) Buffer: 10 mM potassium phosphate (pH 6.0), 1 mM EDTA, 10 mM MgCl2, 0.1 M NaCl.
# (§6) All the values shown are those obtained using the more polar stereoisomer of the exemplified compounds. The dissociation constant; i.e. Ki (μM) of each compound was calculated by the following equation.
# mouse EP1 = biological target: T2, mouse EP1 (Mus musculus, UniProt P35375); assay: Binding assay using expression cell of prostanoids receptor subtype (competition of specific 3H-PGE2 binding), EP1
# T2 construct: expressed in transfected cells; host or cells: CHO cells (membrane fraction)
# T2 sequence (P35375 1-405): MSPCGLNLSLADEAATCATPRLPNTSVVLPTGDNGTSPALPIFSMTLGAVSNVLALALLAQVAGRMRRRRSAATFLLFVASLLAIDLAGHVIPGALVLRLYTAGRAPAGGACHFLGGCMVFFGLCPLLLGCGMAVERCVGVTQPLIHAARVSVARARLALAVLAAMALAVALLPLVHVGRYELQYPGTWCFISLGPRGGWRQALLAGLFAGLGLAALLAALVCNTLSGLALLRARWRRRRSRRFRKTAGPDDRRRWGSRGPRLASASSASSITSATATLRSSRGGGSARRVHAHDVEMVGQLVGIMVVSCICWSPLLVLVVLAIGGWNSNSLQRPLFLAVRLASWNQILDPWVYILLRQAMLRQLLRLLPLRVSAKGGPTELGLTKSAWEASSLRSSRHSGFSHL
# Protocol: as §1, §2, §3, §4, §5, §6
# mouse EP4 = biological target: T3, mouse EP4 (Mus musculus, UniProt P32240); assay: Binding assay using expression cell of prostanoids receptor subtype (competition of specific 3H-PGE2 binding), EP4
# T3 construct: expressed in transfected cells; host or cells: CHO cells (membrane fraction)
# T3 sequence (P32240 whole entry): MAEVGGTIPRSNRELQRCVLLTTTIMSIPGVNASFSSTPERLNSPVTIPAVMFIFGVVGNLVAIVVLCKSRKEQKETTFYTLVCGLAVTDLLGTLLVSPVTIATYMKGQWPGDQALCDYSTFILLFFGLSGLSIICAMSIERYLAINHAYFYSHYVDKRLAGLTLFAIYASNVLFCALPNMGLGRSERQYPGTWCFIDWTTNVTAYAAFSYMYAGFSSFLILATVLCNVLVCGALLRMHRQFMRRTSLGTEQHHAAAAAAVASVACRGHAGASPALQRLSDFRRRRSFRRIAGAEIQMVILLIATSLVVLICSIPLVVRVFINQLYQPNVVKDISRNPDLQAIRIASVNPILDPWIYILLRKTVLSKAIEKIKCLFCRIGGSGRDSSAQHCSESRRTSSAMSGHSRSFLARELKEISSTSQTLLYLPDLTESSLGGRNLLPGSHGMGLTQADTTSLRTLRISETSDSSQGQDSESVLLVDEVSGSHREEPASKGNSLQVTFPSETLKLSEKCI
# Protocol: as §1, §2, §3, §4, §5, §6
# mouse EP3α = biological target: T4, mouse EP3α (Mus musculus, UniProt P30557); assay: Binding assay using expression cell of prostanoids receptor subtype (competition of specific 3H-PGE2 binding), EP3α
# T4 construct: expressed in transfected cells; host or cells: CHO cells (membrane fraction)
# T4 sequence (P30557 1-365): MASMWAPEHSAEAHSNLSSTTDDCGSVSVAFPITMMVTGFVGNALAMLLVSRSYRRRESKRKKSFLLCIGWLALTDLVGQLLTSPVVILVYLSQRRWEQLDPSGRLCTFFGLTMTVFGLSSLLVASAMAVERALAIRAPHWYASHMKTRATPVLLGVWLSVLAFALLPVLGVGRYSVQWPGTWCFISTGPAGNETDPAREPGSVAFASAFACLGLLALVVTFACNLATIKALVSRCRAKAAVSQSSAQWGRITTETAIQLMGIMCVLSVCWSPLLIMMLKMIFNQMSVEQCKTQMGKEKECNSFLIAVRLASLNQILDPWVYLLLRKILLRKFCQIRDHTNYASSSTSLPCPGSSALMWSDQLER
# Protocol: as §1, §2, §3, §4, §5, §6
Ki (mouse EP2) [nM],Ki (mouse EP1) [nM],Ki (mouse EP4) [nM],Ki (mouse EP3α) [nM],Compound
6.1,> 10000,> 10000,> 10000,"O=C(O)c1ccc(CC[C@H]2C(=O)C[C@@H](O)[C@@H]2/C=C/CC(O)C2(CC3CC3)CCC2)cc1 (single isomer, unassigned) [Example 2(b), (11α,13E)-9-Oxo-11,16-dihydroxy-17,17-propano-19,20-methano-1,6-(p-phenylene)-2,3,4,5-tetranorprost-13-enoic Acid]"
19,> 10000,1500,> 10000,"C=CCC1(C(O)C/C=C/[C@@H]2C(SCc3ccc(C(=O)O)cc3)C(=O)C[C@H]2O)CCC1 (stereo partly drawn) [Example 5(b), (11α,13E)-9-Oxo-11,16-dihydroxy-17,17-propano-7-thia-1,6-(p-phenylene)-2,3,4,5-tetranorprost-13,19-dienoic Acid]"
9.7,> 10000,> 10000,> 10000,"C=CCC1(C(O)C/C=C/[C@H]2[C@H](O)CC(=O)[C@@H]2CCc2ccc(C(=O)O)cc2)CCC1 (single isomer, unassigned) [Example 2(a), (11α,13E)-9-Oxo-11,16-dihydroxy-17,17-propano-1,6-(p-phenylene)-2,3,4,5-tetranorprost-13,19-dienoic Acid]"

# Further lines, the compound ahead of its results:
Compound,Ki (mouse EP2) [nM],Ki (mouse EP1) [nM],Ki (mouse EP4) [nM],Ki (mouse EP3α) [nM]
"O=C(O)c1ccc(CSC2C(=O)C[C@@H](O)[C@@H]2/C=C/CC(O)C2(CC3CC3)CCC2)cc1 (stereo partly drawn) [Example 5(d), (11α,13E) -9-Oxo-11,16-dihydroxy-17,17-propano-19,20-methano-7-thia-1,6-(p-phenylene)-2,3,4,5-tetranorprost-13-enoic Acid]",2,> 10000,310,> 10000
"C=CCC1(C(O)C/C=C/[C@@H]2[C@@H](CCc3ccc(C(=O)O)cc3)[C@H](Cl)C[C@H]2O)CCC1 (stereo partly drawn) [9(c), (9β,11α,13E) -9-Chloro-11,16-dihydroxy-17,17-propano-1,6-(p-phenylene)-2,3,4,5-tetranorprost-13,19-dienoic acid]",5.1,> 10000,> 10000,> 10000
